Patent US20210253598A1, “ARYL ANNULATED MACROCYCLIC INDOLE DERIVATIVES” (priority 2017, published 2021)
Counter-ions that a name gives are not always drawn. Like-named read-outs stand apart in the source and are kept apart here.

Key:
AMO-1 = test: Anti-proliferative effect in AMO-1 cells, CellTiter-Glo (Assay 7); format: cell-based; conditions: Homo sapiens, AMO1, 72 h, AMO-1, 72 hours incubation, CellTiter-Glo; several values per example; read-out: Antiproli AMO-1
Procedure: (§1) Assessment of the Anti-Proliferative Effect of Compounds in Different Cell Lines
(§2) The impact of compounds on the proliferation of different cell lines was assessed using the CellTiter-Glo® Luminescent Cell Viability reagent from Promega (G7573).
(§3) In parallel, cells were plated in a reference (day 0) plate for time zero determination. Cells were incubated in a humidified incubator at 37° C. overnight.
(§4) Rim wells were excluded. The cells were incubated for 72 hours in a humidified incubator at 37° C. The day 0 plate was measured by adding 30 μL/well of CTG solution (CellTiter-Glo® Luminescent Cell Viability reagent, Promega G7573) to time zero wells in the reference plate followed by a 10 minutes incubation and luminescence reading at 0.1 ms. using the PHERAstar FS microplate reader (BMG Labtech).
(§5) After 72 hours incubation, the treated plates were measured in the same way as the day 0 plate mentioned above. The Bella DRC Master Sheet was used to calculate IC50s, with CI=day 0 values and C0=DMSO control values.

SUDHL10 [1] = test: Induction of caspase-3/7 activity in SUDHL10 cells (Assay 4); format: cell-based; conditions: Homo sapiens, SU-DHL10, 3 h
Procedure, shortened: (§6)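 DLBCL lines SUDHL5 and SUDHL10 were treated with compound for 3 h at 37 °C. Caspase-3/7 activity was then read by Caspase-Glo 3/7 luminescence after 1 h at 37 °C. Medium-only background was subtracted and values were normalized to the mean of DMSO-treated cells.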

MCL-1 = MCL-1 (Homo sapiens, UniProt Q07820, K194A/K197A/R201A); test: Protein-protein interaction assay MCL-1/Noxa BH3 peptide, TR-FRET (MCL-1 assay, Assay 1); format: binding; conditions: MCL-1 Assay [M] (median), MBP-MCL-1 / Noxa BH3 peptide
Procedure, shortened: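 Human MBP-fused MCL-1 (aa 173-321; 1 nM final) was pre-incubated 10 min at 22 °C with compound in pH 7 Tris buffer containing NaCl, KF, Tween-20, DTT and BGG. Displacement of biotinylated Noxa BH3 peptide was read by TR-FRET (anti-MBP-Eu cryptate/streptavidin-XL665) after 1 h at 22 °C plus overnight at 4 °C. IC50 came from four-parameter fits against DMSO controls.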

SUDHL5 [2] = test: Induction of cytotoxicity in SUDHL5 cells, CellTiter-Glo (Assay 6); format: cell-based; conditions: SUDHL5, 5 hours incubation, median, read-out: Cytotox SUDHL5 [M] (median)
Procedure, shortened: (§7)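 Cells plated and held overnight at 37 °C, then compound-treated for 5 h at 37 °C. Viability measured by CellTiter-Glo luminescence after 15 min shaking at room temperature; cell-free medium as background control.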

SUDHL5 [3] = test: Induction of caspase-3/7 activity in SUDHL5 cells (Assay 4); format: cell-based; conditions: Homo sapiens, SU-DHL-5, 3 h
Procedure, shortened: as §6

SUDHL10 [4] = test: Induction of cytotoxicity in SUDHL10 cells, CellTiter-Glo (Assay 6); format: cell-based; conditions: SUDHL10, 5 hours incubation, median, read-out: Cytotox SUDHL10 [M] (median)
Procedure, shortened: as §7

MV-4-11 = test: Anti-proliferative effect in MV-4-11 cells, CellTiter-Glo (Assay 7); format: cell-based; conditions: Homo sapiens, MV4-11, 72 h, several values per example
Procedure: as §1, §2, §3, §4, §5

SUDHL5 [5] = test: Anti-proliferative effect in SUDHL5 cells, CellTiter-Glo (Assay 7); format: cell-based; conditions: Homo sapiens, SU-DHL-5, 72 h
Procedure: as §1, §2, §3, §4, §5

A2780 = test: Anti-proliferative effect in A2780 cells, CellTiter-Glo (Assay 7); format: cell-based; conditions: Homo sapiens, A2780, 72 h, several values per example
Procedure: as §1, §2, §3, §4, §5

[6] = SUDHL10, 3 hours treatment, Caspase-Glo 3/7, median, read-out: Caspase SUDHL10 [M] (median)
[7] = SUDHL5, 3 hours treatment, Caspase-Glo 3/7, median, read-out: Caspase SUDHL5 [M] (median)
[8] = MV-4-11, 72 hours incubation, CellTiter-Glo, read-out: Antiproli MV-4-11
[9] = SUDHL5, 72 hours incubation, CellTiter-Glo, median, read-out: Antiproli SUDHL5 [M] (median)
[10] = A2780, 72 hours incubation, CellTiter-Glo, read-out: Antiproli A2780

MCL-1, sequence (Q07820 173-321 K194A/K197A/R201A, looked up): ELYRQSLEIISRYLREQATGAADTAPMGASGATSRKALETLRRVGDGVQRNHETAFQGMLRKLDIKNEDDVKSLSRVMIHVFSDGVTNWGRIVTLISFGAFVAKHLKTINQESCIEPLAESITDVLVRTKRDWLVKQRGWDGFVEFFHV

Row | EC50 (SUDHL10 [1]; [6]) [M] | EC50 (SUDHL5 [3]; [7]) [M] | IC50 (MV-4-11; [8]) [M] | IC50 (SUDHL5 [5]; [9]) [M] | SMILES | IC50 (AMO-1) [µM] | IC50 (MCL-1) [M] | IC50 (SUDHL5 [2]; Homo sapiens, SU-DHL-5, 5 h) [M] | IC50 (SUDHL10 [4]; Homo sapiens, SU-DHL10, 5 h) [M] | IC50 (A2780; [10]) [M] | EC50 (SUDHL10 [1]; read-out: Caspase SUDHL10 [M] (median), SUDHL10, 3 hours treatment, Caspase-Glo 3/7) | IC50 (A2780; read-out: Antiproli A2780 [M], A2780, 72 hours incubation, CellTiter-Glo) [M] | EC50 (SUDHL5 [3]; read-out: Caspase SUDHL5 [M] (median), SUDHL5, 3 hours treatment, Caspase-Glo 3/7) | IC50 (MV-4-11; read-out: Antiproli MV-4-11 [M], MV-4-11, 72 hours incubation, CellTiter-Glo) [M] | IC50 (SUDHL5 [5]; read-out: Antiproli SUDHL5 [M] (median), SUDHL5, 72 hours incubation, CellTiter-Glo) | IC50 (SUDHL5 [2]) [M] | IC50 (SUDHL10 [4]) [M]
1 | 8.3e-06 | 2.9e-06 | 8.44e-06 | 4e-06 | CCc1nn(C)c2c1-c1c(F)ccc3c(CCCOc4ccc(F)c5ccccc45)c(C(=O)O)n(c13)Cc1ccccc1COC2 (racemic) [Example 89, (rac)-14-Ethyl-15-fluoro-1-(3-((4-fluoronaphthalen-1-yl)oxy)propyl)-12-methyl-4,9,11,12-tetrahydrobenzo[3,4]pyrazolo[4′,3′:9,10][1,6]oxaazacycloundecino[8,7,6-hi]indole-2-carboxylic Acid] | 12.8 | 1.2e-08 | 2.6e-06 | 7.5e-06 |  |  |  |  |  |  |  | 
2 | 2e-05 | 3.7e-06 | 1.7e-05 | 6.9e-06 | Cc1cc(OCCCc2c(C(=O)O)n3c4c(c(F)ccc24)-c2c(C)nn(C)c2COCc2ccccc2C3)cc(C)c1Cl (racemic) [Example 85, (rac)-1-(3-(4-chloro-3,5-dimethylphenoxy)propyl)-15-fluoro-12,14-dimethyl-4,9,11,12-tetrahydrobenzo[3,4]pyrazolo[4′,3′:9,10][1]oxa[6]azacycloundecino[8,7,6-hi]indole-2-carboxylic Acid] | 23.7 | 1.2e-08 | 3.3e-06 | 6.5e-06 |  |  |  |  |  |  |  | 
3 | 7.9e-06 | 2.2e-06 | 1.19e-05 |  | Cc1c2c(nn1C)COCc1nccnc1Cn1c(C(=O)O)c(CCCOc3cccc4ccccc34)c3ccc(Cl)c-2c31 (racemic) [Example 45, (rac)-3-Chloro-4,5-dimethyl-17-{3-[(naphthalen-1-yl)oxy]propyl}-5,7,9,14-tetrahydropyrazino-[2′,3′:3,4]pyrazolo[4′,3′:9,10][1,6]oxazacycloundecino[8,7,6-hi]indole-16-carboxylic Acid] | 9.56 |  | 2.7e-06 | 8.2e-06 |  |  |  |  |  |  |  | 
4 | > 3.3e-05 | 2.2e-05 | 1.45e-05 | 1e-05 | Cc1nn(C)c2c1-c1c(F)ccc3c(CCCOc4ccc(F)c5ccccc45)c(C(=O)O)n(c13)Cc1ccccc1COC2 (racemic) [Example 82, (rac)-15-Fluoro-1-(3-((4-fluoronaphthalen-1-yl)oxy)propyl)-12,14-dimethyl-4,9,11,12-tetrahydrobenzo[3,4]pyrazolo[4′,3′:9,10][1]oxa[6]azacycloundecino[8,7,6-hi]indole-2-carboxylic Acid] |  | 1.2e-08 | 2.4e-05 | > 3.3e-05 | 2.85e-05 |  |  |  |  |  |  | 

Continued, molecule first:

Row | SMILES | EC50 (SUDHL10 [1]; [6]) [M] | EC50 (SUDHL5 [3]; [7]) [M] | IC50 (MV-4-11; [8]) [M] | IC50 (SUDHL5 [5]; [9]) [M] | IC50 (AMO-1) [µM] | IC50 (MCL-1) [M] | IC50 (SUDHL5 [2]; Homo sapiens, SU-DHL-5, 5 h) [M] | IC50 (SUDHL10 [4]; Homo sapiens, SU-DHL10, 5 h) [M] | IC50 (A2780; [10]) [M] | EC50 (SUDHL10 [1]; read-out: Caspase SUDHL10 [M] (median), SUDHL10, 3 hours treatment, Caspase-Glo 3/7) | IC50 (A2780; read-out: Antiproli A2780 [M], A2780, 72 hours incubation, CellTiter-Glo) [M] | EC50 (SUDHL5 [3]; read-out: Caspase SUDHL5 [M] (median), SUDHL5, 3 hours treatment, Caspase-Glo 3/7) | IC50 (MV-4-11; read-out: Antiproli MV-4-11 [M], MV-4-11, 72 hours incubation, CellTiter-Glo) [M] | IC50 (SUDHL5 [5]; read-out: Antiproli SUDHL5 [M] (median), SUDHL5, 72 hours incubation, CellTiter-Glo) | IC50 (SUDHL5 [2]) [M] | IC50 (SUDHL10 [4]) [M]
5 | Cc1c2c(nn1C)CN(C)Cc1ccccc1Cn1c(C(=O)O)c(CCCOc3cccc4ccccc34)c3cccc-2c31 (racemic) [Example 14, (rac)-4,5,8-Trimethyl-17-[3-(naphthalen-1-yloxy)propyl]-7,8,9,14-tetrahydro-5H-indolo[1,7-bc]pyrazolo[4,3-e][2,8]benzodiazacycloundecine-16-carboxylic Acid] | 7.6e-06 | 2.7e-06 | 6.41e-06 | 3.4e-06 |  | 5.2e-09 | 3e-06 | 7e-06 | 1.75e-05 |  |  |  |  |  |  | 
6 | Cc1c2c(nn1C)COCc1ccccc1Cn1c(C(=O)O)c(CCCOc3cccc4ccccc34)c3ccc(Cl)c-2c31 (racemic) [Example 36, (rac)-3-Chloro-4,5-dimethyl-17-[3-(naphthalen-1-yloxy)propyl]-5,7,9,14-tetrahydroindolo[7,1-fg]pyrazolo[3,4-d][2,8]benzoxazacycloundecine-16-carboxylic Acid] | 5.5e-06 | 2.4e-06 | 1.38e-06 | 3.6e-06 |  | 3.2e-09 | 3.8e-06 | 4.9e-06 | 2.31e-05 |  |  |  |  |  |  | 
7 | Cc1c2c(nn1C)CN(C(=O)NC1CCOCC1)Cc1ccccc1Cn1c(C(=O)O)c(CCCOc3cccc4ccccc34)c3cccc-2c31 (racemic) [Example 24, (rac)-4,5-Dimethyl-17-[3-(naphthalen-1-yloxy)propyl]-8-(tetrahydro-2H-pyran-4-ylcarbamoyl)-7,8,9,14-tetrahydro-5H-indolo[1,7-bc]pyrazolo[4,3-e][2,8]benzodiazacycloundecine-16-carboxylic Acid] | > 3.3e-05 | > 3.3e-05 | > 3.3e-05 | > 3.3e-05 |  | 5.3e-08 | > 3.3e-05 | > 3.3e-05 | > 3.3e-05 |  |  |  |  |  |  | 
8 | Cc1c2c(nn1C)COCc1cccnc1Cn1c(C(=O)O)c(CCCOc3cccc4ccccc34)c3ccc(Cl)c-2c31 (racemic) [Example 39, (rac)-3-Chloro-4,5-dimethyl-17-[3-(naphthalen-1-yloxy)propyl]-5,7,9,14-tetrahydropyrazolo-[4′,3′:9,10]pyrido[3′,2′:3,4][1,6]oxazacycloundecino[8,7,6-hi]indole-16-carboxylic Acid] | 5.7e-06 | 3.7e-06 | 1.56e-05 | 2.4e-06 |  | 1.6e-09 | 3.3e-06 | 6.7e-06 | > 3.3e-05 |  |  |  |  |  |  | 
9 | Cc1c2c(nn1C)CN(C(=O)CC1CCOCC1)Cc1ccccc1Cn1c(C(=O)O)c(CCCOc3cccc4ccccc34)c3cccc-2c31 (racemic) [Example 21, (rac)-4,5-Dimethyl-17-[3-(naphthalen-1-yloxy)propyl]-8-(tetrahydro-2H-pyran-4-ylacetyl)-7,8,9,14-tetrahydro-5H-indolo[1,7-bc]pyrazolo[4,3-e][2,8]benzodiazacycloundecine-16-carboxylic Acid] | > 3.3e-05 | 2e-05 | 8.33e-06 | 1.1e-05 |  | 3.5e-08 | 1.3e-05 | > 3.3e-05 | 1.19e-05 |  |  |  |  |  |  | 
10 | Cc1c2c(nn1C)COCc1ncccc1Cn1c(C(=O)O)c(CCCOc3cccc4ccccc34)c3ccc(Cl)c-2c31 (single isomer, unassigned; enantiomer 2) [Example 44, 3-Chloro-4,5-dimethyl-17-[3-(naphthalen-1-yloxy)propyl]-5,7,9,14-tetrahydropyrazolo-[4′,3′:9,10]pyrido[2′,3′:3,4][1,6]oxazacycloundecino[8,7,6-hi]indole-16-carboxylic acid-N-ethylethanamine Salt (Enantiomer 2)] |  |  |  |  |  | 5.2e-09 | 7.9e-06 | 1.5e-05 |  | 1.5e-05 | 2.37e-05 | 7.8e-06 | 1.54e-05 | 5.7e-06 |  | 
11 | Cc1c2c(nn1C)CN(C)Cc1ccccc1Cn1c(C(=O)O)c(CCCOc3cccc4ccccc34)c3cccc-2c31 (single isomer, unassigned; enantiomer 2) [Example 16, 4,5,8-Trimethyl-17-[3-(naphthalen-1-yloxy)propyl]-7,8,9,14-tetrahydro-5H-indolo[1,7-bc]pyrazolo[4,3-e][2,8]benzodiazacycloundecine-16-carboxylic Acid (Enantiomer 2)] | > 3.3e-05 | 2.4e-05 | 1.15e-05 |  | 20.3 | 1.1e-07 |  |  |  |  |  |  |  |  | 2.4e-05 | 3e-05
